Values quoted from earlier work, collected in patent US20060281913A1, “Process for the production of crystalline xylose from sugar cane bagasse, crystalline xylose obtained by said process, process for the production of xylitol from the said xylose and crystalline xylitol obtained thereby” (priority 2003, published 2006).
Like-named read-outs stand apart in the source and are kept apart here.

Tests used:
[1] = relative to sucrose

solubility in methanol, ethanol and isopropanol	solubility in water	Structure (SMILES)	sweetening power ([1]; data collected from the literature)	sweetening power ([1]; in words)
sparingly soluble	highly soluble	O=C[C@H](O)[C@@H](O)[C@H](O)CO [crystalline xylose, xylose]	~67 % that of sucrose	–
low solubility	high solubility	OC[C@@H](O)[C@H](O)[C@@H](O)CO [crystalline xylitol, xylitol]	–	equivalent to that of sucrose
